Where “and” joins values, the source holds several entries; their conditions need not be identical. Equal values may be shown once. Where a name gives a salt, the structure may show the parent alone. Read-outs that look alike come from different tables or passages of the source.
Experiments:
[1] = tested on: fibrin- and LPS-induced microglia activation; test: cells; type: cell-based, rat; details: for inhibition at 10 µM: Rattus norvegicus, Microglia
primary rat microglia [2] = test: Cell toxicity (dead cells, size <150 μm2) in LPS assay
primary rat microglia [3] = test: Cell toxicity (dead cells, size <150 μm2) in coated fibrin (cFib) assay; details: primary microglia HTS;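 also: share of dead cells sized under 150 µm2 at 10 µM in fibrin-stimulated microglia HTS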
[4] = tested on: fibrin-induced microglia activation; test: Image-based assay of fibrin-induced microglia activation (HTS and dose response); type: cell-based, rat; details: for IC50 / inhibition at 10 µM: Rattus norvegicus, Microglia; for inhibition at 10 µM: read-out: Fibrin % inhibition
[5] = tested on: LPS-induced microglia activation; test: Image-based assay of LPS-induced microglia activation (HTS and dose response); type: cell-based, rat; details: for IC50 / inhibition at 10 µM: Rattus norvegicus, Microglia; for inhibition at 10 µM: read-out: LPS % inhibition
primary rat microglia [6] = details: rat
[7] = quadrant by fibrin and LPS inhibition in HTS of 1907 compounds
[8] = primary microglia HTS, LPS stimulation, decreased size (<150 μm^2) as marker of toxicity
[9] = fibrin stimulation, decreased size (<150 μm^2) as marker of toxicity
[10] = primary microglia HTS, fibrin stimulation, activation = cell size >800 μm2
[11] = primary microglia HTS, LPS stimulation, activation = cell size >800 μm2
[12] = primary microglia HTS, LPS stimulation, toxicity = cell size <150 μm2
[13] = fibrin stimulation, toxicity = cell size <150 μm2
[14] = HTS of 1907 compounds, quadrant by fibrin and LPS inhibition
[15] = primary microglia HTS, 10 μM, fibrin-stimulated, cell size >800 μm^2 as marker of activation
[16] = primary microglia HTS, 10 μM, LPS-stimulated, cell size >800 μm^2 as marker of activation
[17] = primary microglia HTS, 10 μM, LPS assay, cell size <150 μm^2 as marker of toxicity
[18] = 10 μM, fibrin assay, cell size <150 μm^2 as marker of toxicity

C[C@H](N)[C@H](O)c1cccc(O)c1 [Metaraminol]
Quadrant (FIG. 5b) [1, 7]: Q4 | LPS % cell toxicity (primary rat microglia [2]; [8]): 1% | Fibrin % cell toxicity (primary rat microglia [3]; [9]): 0% and 1%

Br.COc1ccc2c3c1O[C@H]1C[C@@H](O)C=C[C@@]31CCN(C)C2 [Galanthamine Hydrobromide, Galantamine]
Fibrin % inhibition [4, 10]: 10% | LPS % inhibition [5, 11]: 9% | Quadrant (FIG. 5b) [1, 7]: Q4 | LPS % cell toxicity (primary rat microglia [2]; [12]): 0%

O=[N+]([O-])O[C@H]1CO[C@H]2[C@@H]1OC[C@H]2O[N+](=O)[O-] [Isosorbide Dinitrate]
LPS % cell toxicity (primary rat microglia [2]; [12]): 0% | Fibrin % cell toxicity (primary rat microglia [3]; [13]): 0%

CCN(CC)C(=O)C1(c2ccccc2)CC1CN (stereo not drawn) [Milnacipran hydrochloride, reference compound]
IC50 ([4]; 48 h, Table 1, dose response 0.001-20 μM, triplicates, primary rat microglia, 48 h, read-out: Fibrin IC50): 8 µM | IC50 ([4]; Table 3, read-out: Fibrin IC50 (uM) (Suppl. Table 7)): 8 µM | IC50 ([4]; dose response, fibrin-induced microglia activation, read-out: Fibrin IC50): 8 µM | IC50 ([4]; fibrin-induced microglia activation, dose response, read-out: Fibrin IC50 (uM) (Suppl. Table 7)): 8 µM | inhibition at 10 µM ([4]; primary microglia HTS, fibrin stimulation, increased cell size (>800 μm^2) as marker of activation): 72% | IC50 ([5]; 48 h, Table 1, dose response 0.001-20 μM, triplicates, primary rat microglia, 48 h, read-out: LPS IC50): 20 µM | inhibition at 10 µM ([5]; 48 h, primary microglia HTS, LPS stimulation, increased cell size (>800 μm^2) as marker of activation): 31% | IC50 ([5]; LPS-induced microglia activation, dose response, read-out: LPS IC50 (uM) (Suppl. Table 7)): 20 µM | IC50 ([5]; Table 3, read-out: LPS IC50 (uM) (Suppl. Table 7)): 20 µM | IC50 ([5]; dose response, LPS-induced microglia activation, read-out: LPS IC50): 20 µM | Quadrant (FIG. 5b) [1, 14]: Q3 | inhibition at 10 µM ([1]; Table 3, read-out: Cherry-picked Hit (Suppl. Table 7)): > 50% | inhibition at 10 µM ([1]; HTS hit classification, read-out: Hit): > 50% | Quadrant (FIG. 5b) ([1]; Table 1, screen at 10 μM): Q3 | Quadrant (FIG. 5b) ([1]; Table 3, screen at 10 μM): Q3 | Quadrant (FIG. 5b) [1, 7]: Q3 | LPS % cell toxicity (primary rat microglia [2]; [8]): 1%

CC(C)[C@H]1CC[C@H](C(=O)N[C@H](Cc2ccccc2)C(=O)O)CC1 [Nateglinide]
Quadrant (FIG. 5b) [1, 7]: Q4 | LPS % cell toxicity (primary rat microglia [2]; [8]): 1% and 0% | Fibrin % cell toxicity (primary rat microglia [3]; [9]): 1%

CN(C)[C@@H]1C(=O)C(C(N)=O)=C(O)[C@@]2(O)C(=O)C3=C(O)c4c(O)ccc(Cl)c4[C@@](C)(O)[C@H]3C[C@@H]12
Fibrin % inhibition ([4]; primary HTS, 10 μM, fibrin-stimulated primary microglia): 27% | LPS % inhibition ([5]; primary HTS, 10 μM, LPS-stimulated primary microglia): 23% | Quadrant (FIG. 5b) ([1]; primary HTS, 10 μM): Q4 | LPS % cell toxicity (primary rat microglia [2]; primary HTS, 10 μM, LPS assay, dead cells size <150 μm2): 0%

CCNC1(c2cccs2)CCCCC1=O.Cl (stereo not drawn) [Tiletamine Hydrochloride]
Fibrin % inhibition [4, 15]: 8% | LPS % inhibition [5, 16]: 22% | Quadrant (FIG. 5b) [1, 14]: Q4 | LPS % cell toxicity (primary rat microglia [2]; [17]): 0%

CN1Cc2c(N)cccc2C(c2ccccc2)C1 (stereo not drawn) [Nomifensine]
Quadrant (FIG. 5b) [1, 7]: Q4 | LPS % cell toxicity (primary rat microglia [2]; [8]): 0% | Fibrin % cell toxicity (primary rat microglia [3]; [9]): 0%

CC(C)N1CCN(c2ccc(OCC3COC(Cn4cncn4)(c4ccc(Cl)cc4Cl)O3)cc2)CC1 (stereo not drawn) [Terconazole]
Quadrant (FIG. 5b) [1, 14]: Q4 | LPS % cell toxicity (primary rat microglia [2]; [17]): 0% | Fibrin % cell toxicity (primary rat microglia [3]; [18]): 1%

CC(Oc1c(Cl)cccc1Cl)C1=NCCN1 (stereo not drawn) [Lofexidine]
Quadrant (FIG. 5b) [1, 7]: Q4 | LPS % cell toxicity (primary rat microglia [2]; [12]): 0% | Fibrin % cell toxicity (primary rat microglia [3]; [13]): 0% and 1%

COc1cccc(C2(O)CCCCC2CN(C)C)c1 (stereo not drawn) [Tramadol Hydrochloride]
LPS % cell toxicity (primary rat microglia [2]; [17]): 0% | Fibrin % cell toxicity (primary rat microglia [3]; [18]): 0%

CC[C@H]1OC(=O)C[C@@H](O)[C@H](C)[C@@H](O[C@@H]2O[C@H](C)[C@@H](O[C@H]3C[C@@](C)(O)[C@@H](O)[C@H](C)O3)[C@H](N(C)C)[C@H]2O)[C@@H](CC=O)C[C@@H](C)C(=O)/C=C/C(C)=C/[C@@H]1CO[C@@H]1O[C@H](C)[C@@H](O)[C@@H](OC)[C@H]1OC.O=C(O)C(O)C(O)C(=O)O [Tylosin Tartrate]
Fibrin % inhibition [4, 15]: 9% | LPS % inhibition [5, 16]: 11% | Quadrant (FIG. 5b) [1, 14]: Q4 | LPS % cell toxicity (primary rat microglia [2]; [17]): 0%

CC(=O)[C@@]1(O)CC[C@H]2[C@@H]3CCC4=CC(=O)CC[C@]4(C)[C@H]3CC[C@@]21C [Hydroxyprogesterone]
Fibrin % inhibition [4, 10]: 9% | LPS % inhibition [5, 11]: 33% | Quadrant (FIG. 5b) [1, 7]: Q4 | LPS % cell toxicity (primary rat microglia [2]; [12]): 1%

N#C[C@@H]1C[C@@H]2C[C@@H]2N1C(=O)[C@@H](N)C12CC3CC(CC(O)(C3)C1)C2 [Saxagliptin]
inhibition at 10 µM ([4]; primary microglia HTS, fibrin stimulation, cell size >800 μm2 as marker of activation): 34% | inhibition at 10 µM ([5]; 48 h): 38% | Quadrant (FIG. 5b) ([1]; classification by fibrin and LPS inhibition in HTS): Q4 | LPS % cell toxicity (primary rat microglia [6]): 0% | Fibrin % cell toxicity (primary rat microglia [3]; fibrin stimulation, cell size <150 μm2 as marker of toxicity): 1%

NC(=O)NC1NC(=O)NC1=O (stereo not drawn) [Allantoin]
inhibition at 10 µM ([4]; primary microglia HTS, fibrin stimulation, compounds at 10 μM): -21% | inhibition at 10 µM ([5]; primary microglia HTS, LPS stimulation, compounds at 10 μM): 6% | Quadrant (FIG. 5b) ([1]; quadrant by fibrin and LPS inhibition, HTS at 10 μM): Q4 | LPS % cell toxicity (primary rat microglia [6]): 0% | Fibrin % cell toxicity (primary rat microglia [3]; fibrin assay, dead cells (size <150 μm2)): 1%

— patent publication US20210330611A1, “THERAPY FOR NEUROLOGICAL DISEASES/DISORDERS” (priority 2020, published 2021)
